Reference: patent US6358885B1, “Substituted phenylheterocyclic herbicides” (Mississippi State University, priority 1992, dated 2002)

Columns and labels:
[1] = tested on: bedstraw; assay: Test B preemergence/postemergence greenhouse plant response rating 0 to 10; assay type: in vivo, Galium aparine; settings: for Plant response rating, Bedstraw: 0 to 10 scale
Procedure, shortened: (§1)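 Both application timings were run together: seeds got compound preemergence, and established seedlings (two to eighteen cm) got it postemergence. Non-phytotoxic solvent carried the chemical. Ratings are visual, versus controls, at twelve to sixteen days.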

[2] = tested on: cheatgrass; assay: as above; assay type: in vivo, Bromus secalinus; settings: for Plant response rating, Cheatgrass: 0 to 10 scale
Procedure, shortened: as §1

[3] = tested on: cocklebur; assay: as above; assay type: in vivo, Xanthium pensylvanicum; settings: for Plant response rating, Cocklebur: 0 to 10 scale
Procedure, shortened: as §1

[4] = tested on: cotton; assay: as above; assay type: in vivo, Gossypium hirsutum; settings: for Plant response rating, Cotton: 0 to 10 scale
Procedure, shortened: as §1

[5] = tested on: crabgrass; assay: as above; assay type: in vivo, Digitaria spp.; settings: for Plant response rating, Crabgrass: 0 to 10 scale
Procedure, shortened: as §1

[6] = tested on: giant foxtail; assay: as above; assay type: in vivo, Setaria faberii; settings: 0 to 10 scale
Procedure, shortened: as §1

[7] = tested on: morningglory; assay: as above; assay type: in vivo, Ipomoea hederacea; settings: 0 to 10 scale
Procedure, shortened: as §1

[8] = tested on: rape; assay: as above; assay type: in vivo, Brassica napus; settings: 0 to 10 scale
Procedure, shortened: as §1

[9] = tested on: barley; assay: Test C preemergence/postemergence greenhouse plant response rating 0 to 100; assay type: in vivo, Hordeum vulgare; settings: POSTEMERGENCE; for Plant response rating Barley Igri: 0 to 100 scale
From the text: (§2) The compounds evaluated in this test were formulated in a non-phytoxic solvent and applied to the soil surface before plant seedlings emerged (preemergence application), to water that covered the soil surface (flood application), and to plants that were in the one-to-four leaf stage (postemergence application). A sandy loam soil was used for the preemergence and postemergence tests, while a silt loam soil was used in the flood test. Water depth was approximately 2.5 cm for the flood test and was maintained at this level for the duration of the test. Plant species in the preemergence and postemergence tests consisted of barley (Hordeum vulgare), bedstraw (Galium aparine), blackgrass (Alopecurus myosuroides), chickweed (Stellaria media), corn (Zea mays), cotton (Gossypium hirsutum), crabgrass (Digitaria sanguinalis), downy brome (Bromus tectorum), giant foxtail (Setaria faberii), lambsquarters (Chenopodium album), morningglory (Ipomoea hederacea), pigweed ([…]), rape (Brassica napus), ryegrass (Lolium multiflorum), sorghum (Sorghum bicolor), soybean (Glycine max), speedwell (Veronica persica), sugar beet (Beta vulgaris), velvetleaf (Abutilon theophrasti), wheat (Triticum aestivum), wild buckwheat (Polygonum convolvulus), and wild oat (Avena fatua). All plant species were planted one day before application of the compound for the preemergence portion-of this test. Plantings of these species were adjusted to produce plants of appropriate size for the post-emergence portion of the test. […] All plant species were grown using normal greenhouse practices. Visual evaluations of injury expressed on treated plants, when compared to untreated controls, were recorded approximately fourteen to twenty one days after application of the test compound. […] A dash (-) response means no test result.

[10] = tested on: chickweed; assay: as above; assay type: in vivo, Stellaria media; settings: POSTEMERGENCE; for Plant response rating, Chickweed: 0 to 100 scale
From the text: as §2

[11] = tested on: cotton; assay: as above; assay type: in vivo, Gossypium hirsutum; settings: POSTEMERGENCE; for Plant response rating, Cotton: 0 to 100 scale
From the text: as §2

[12] = tested on: giant foxtail; assay: as above; assay type: in vivo, Setaria faberii; settings: POSTEMERGENCE; for Plant response rating, Giant foxtail: 0 to 100 scale
From the text: as §2

[13] = tested on: lambsquarters; assay: as above; assay type: in vivo, Chenopodium album; settings: POSTEMERGENCE; for Plant response rating Lambsquarters: 0 to 100 scale
From the text: as §2

[14] = tested on: pigweed; assay: as above; assay type: in vivo, Amaranthusretroflexus; settings: POSTEMERGENCE; for Plant response rating Pigweed: 0 to 100 scale
From the text: as §2

[15] = tested on: soybean; assay: as above; assay type: in vivo, Glycine max; settings: POSTEMERGENCE; for Plant response rating, Soybean: 0 to 100 scale
From the text: as §2

[16] = tested on: velvetleaf; assay: as above; assay type: in vivo, Abutilon theophrasti; settings: POSTEMERGENCE; for Plant response rating, Velvetleaf: 0 to 100 scale
From the text: as §2

[17] = tested on: umbrella sedge; assay: Test C flood test plant response rating 0 to 100; assay type: in vivo, Cyperus difformis; settings: for Plant response rating Umbrella sedge: flood test species listed under POSTEMERGENCE, 0 to 100 scale
From the text: as §2

[18] = tested on: duck salad; assay: Test C flood test plant response rating 0 to 100; assay type: in vivo, Heteranthera limosa; settings: for Plant response rating Duck salad: flood test species listed under POSTEMERGENCE, 0 to 100 scale
From the text: as §2

[19] = POSTEMERGENCE section, flood test, Rate 4 g/ha
[20] = Rate 16 g/ha, under POSTEMERGENCE head (flood test species)

With `COC(=O)C(C)Oc1cc(-c2nn3c(c2Cl)CCCC3)c(F)cc1Cl` (stereo not drawn) [Compound 28] the “Plant response rating (0 to 10 scale), Bedstraw” value ([1]; POSTEMERGENCE, Rate 50 g/ha) was 9, the “Plant response rating, Bedstraw” value ([1]; POSTEMERGENCE, Rate 200 g/ha) was 10 and the “Plant response rating, Bedstraw” value ([1]; PREEMERGENCE, Rate 50 g/ha) was 8. For the same molecule, the “Plant response rating, Bedstraw” value ([1]; Rate 200 g/ha, PREEMERGENCE) was 10, the “Plant response rating (0 to 10 scale), Cheatgrass” value ([2]; POSTEMERGENCE, Rate 50 g/ha) was 6 and the “Plant response rating, Cheatgrass” value ([2]; POSTEMERGENCE, Rate 200 g/ha) was 9. For the same molecule, the “Plant response rating, Cheatgrass” value ([2]; PREEMERGENCE, Rate 50 g/ha) was 4, the “Plant response rating, Cheatgrass” value ([2]; Rate 200 g/ha, PREEMERGENCE) was 6 and the “Plant response rating (0 to 10 scale), Cocklebur” value ([3]; POSTEMERGENCE, Rate 50 g/ha) was 9. For the same molecule, the “Plant response rating, Cocklebur” value ([3]; POSTEMERGENCE, Rate 200 g/ha) was 10, the “Plant response rating, Cocklebur” value ([3]; PREEMERGENCE, Rate 50 g/ha) was 0 and the “Plant response rating, Cocklebur” value ([3]; Rate 200 g/ha, PREEMERGENCE) was 1. For the same molecule, the “Plant response rating (0 to 10 scale), Cotton” value ([4]; POSTEMERGENCE, Rate 50 g/ha) was 10, the “Plant response rating, Cotton” value ([4]; POSTEMERGENCE, Rate 200 g/ha) was 10 and the “Plant response rating, Cotton” value ([4]; PREEMERGENCE, Rate 50 g/ha) was 0. For the same molecule, the “Plant response rating, Cotton” value ([4]; Rate 200 g/ha, PREEMERGENCE) was 0, the “Plant response rating (0 to 10 scale), Crabgrass” value ([5]; POSTEMERGENCE, Rate 50 g/ha) was 5 and the “Plant response rating, Crabgrass” value ([5]; POSTEMERGENCE, Rate 200 g/ha) was 6. For the same molecule, the “Plant response rating, Crabgrass” value ([5]; PREEMERGENCE, Rate 50 g/ha) was 0, the “Plant response rating, Crabgrass” value ([5]; Rate 200 g/ha, PREEMERGENCE) was 2 and the “Plant response rating, Giant foxtail” value ([6]; POSTEMERGENCE, Rate 50 g/ha) was 5. For the same molecule, the “Plant response rating, Giant foxtail” value ([6]; POSTEMERGENCE, Rate 200 g/ha) was 8, the “Plant response rating, Giant foxtail” value ([6]; PREEMERGENCE, Rate 50 g/ha) was 0 and the “Plant response rating, Giant foxtail” value ([6]; Rate 200 g/ha, PREEMERGENCE) was 5. For the same molecule, the “Plant response rating, Morningglory” value ([7]; POSTEMERGENCE, Rate 50 g/ha) was 8, the “Plant response rating, Morningglory” value ([7]; POSTEMERGENCE, Rate 200 g/ha) was 10 and the “Plant response rating, Morningglory” value ([7]; PREEMERGENCE, Rate 50 g/ha) was 3. For the same molecule, the “Plant response rating, Morningglory” value ([7]; Rate 200 g/ha, PREEMERGENCE) was 3, the “Plant response rating, Rape” value ([8]; POSTEMERGENCE, Rate 50 g/ha) was 10 and the “Plant response rating, Rape” value ([8]; POSTEMERGENCE, Rate 200 g/ha) was 10. For the same molecule, the “Plant response rating, Rape” value ([8]; PREEMERGENCE, Rate 50 g/ha) was 9, the “Plant response rating, Rape” value ([8]; Rate 200 g/ha, PREEMERGENCE) was 10 and the “Plant response rating Barley Igri” value ([9]; 62 g/ha) was 40. For the same molecule, the “Plant response rating Barley Igri” value ([9]; 250 g/ha) was 50, the “Plant response rating (0 to 100), Barley Igri” value ([9]; Rate 4 g/ha) was 20 and the “Plant response rating (0 to 100), Barley Igri” value ([9]; Rate 16 g/ha) was 30. The “Plant response rating, Chickweed” value ([10]; 62 g/ha) was 80, the “Plant response rating, Chickweed” value ([10]; 250 g/ha) was 80 and the “Plant response rating (0 to 100), Chickweed” value ([10]; Rate 4 g/ha) was 20. The “Plant response rating (0 to 100), Chickweed” value ([10]; Rate 16 g/ha) was 50, the “Plant response rating, Cotton” value ([11]; 62 g/ha) was 100 and the “Plant response rating, Cotton” value ([11]; 250 g/ha) was 100. For the same molecule, the “Plant response rating (0 to 100), Cotton” value ([11]; Rate 4 g/ha) was 100, the “Plant response rating (0 to 100), Cotton” value ([11]; Rate 16 g/ha) was 100 and the “Plant response rating, Giant foxtail” value ([12]; 62 g/ha) was 100. For the same molecule, the “Plant response rating, Giant foxtail” value ([12]; 250 g/ha) was 100, the “Plant response rating (0 to 100), Giant foxtail” value ([12]; Rate 4 g/ha) was 20 and the “Plant response rating (0 to 100), Giant foxtail” value ([12]; Rate 16 g/ha) was 60. The “Plant response rating Lambsquarters” value ([13]; 62 g/ha) was 80, the “Plant response rating Lambsquarters” value ([13]; 250 g/ha) was 100 and the “Plant response rating (0 to 100), Lambsquarters” value ([13]; Rate 4 g/ha) was 50. For the same molecule, the “Plant response rating (0 to 100), Lambsquarters” value ([13]; Rate 16 g/ha) was 80, the “Plant response rating Pigweed” value ([14]; 62 g/ha) was 100 and the “Plant response rating Pigweed” value ([14]; 250 g/ha) was 100. For the same molecule, the “Plant response rating (0 to 100), Pigweed” value ([14]; Rate 4 g/ha) was 100, the “Plant response rating (0 to 100), Pigweed” value ([14]; Rate 16 g/ha) was 100 and the “Plant response rating, Soybean” value ([15]; 62 g/ha) was 70. The “Plant response rating, Soybean” value ([15]; 250 g/ha) was 80, the “Plant response rating (0 to 100), Soybean” value ([15]; Rate 4 g/ha) was 0 and the “Plant response rating (0 to 100), Soybean” value ([15]; Rate 16 g/ha) was 30. For the same molecule, the “Plant response rating, Velvetleaf” value ([16]; 62 g/ha) was 100, the “Plant response rating, Velvetleaf” value ([16]; 250 g/ha) was 100 and the “Plant response rating (0 to 100), Velvetleaf” value ([16]; Rate 4 g/ha) was 100. The “Plant response rating (0 to 100), Velvetleaf” value ([16]; Rate 16 g/ha) was 100, the “Plant response rating (0 to 100), Umbrella sedge” value [17, 19] was 0 and the “Plant response rating (0 to 100), Umbrella sedge” value [17, 20] was 0. For the same molecule, the “Plant response rating Umbrella sedge” value ([17]; 62 g/ha) was 20, the “Plant response rating Umbrella sedge” value ([17]; 250 g/ha) was 70 and the “Plant response rating (0 to 100), Duck salad” value [18, 19] was 0. For the same molecule, the “Plant response rating (0 to 100), Duck salad” value [18, 20] was 0, the “Plant response rating Duck salad” value ([18]; 62 g/ha) was 30 and the “Plant response rating Duck salad” value ([18]; 250 g/ha) was 70.
